Data set [1] is described as follows: Pharmacokinetic analysis of RAD001 in blood of NSG mice with NALM6 tumors. The data set is classed as in vivo. On the procedure: (§1) RAD001 dosing: A concentrated micro-emulsion of 50 mg equal to 1 mg RAD001 was formulated and then resuspended in D5W (dextrose 5% in water) at the time of dosing. Mice were orally dosed daily (via oral gavage) with 200 μl of the desired doses of RAD001.
PK analysis: Mice were dosed daily with RAD001 starting 7 days post tumor implantation. Dosing groups were as follows: 0.3 mg/kg, 1 mg/kg, 3 mg/kg, and 10 mg/kg. Mice were bled on days 0 and 14 following the first and last dose of RAD001, at the following time points for PK analysis: 15 minutes, 30 minutes, 1 hour, 2 hours, 4 hours, 8 hours, 12 hours, and 24 hours.

Data set [2] relates to huCART19 cells co-cultured with Nalm-6. Nature of the data set: CART proliferation in 4 day co-culture with Nalm-6 in the presence of RAD001. The data set is classed as cell-based, human. As to the method: The effect of low doses of RAD001 on CAR T cell proliferation in vitro was evaluated by co-culturing CART-expressing cells with target cells in the presence of different concentrations of RAD001.
A humanized, anti-human CD19 CAR (huCART19) lentiviral transfer vector was used to produce the genomic material packaged into VSVg pseudotyped lentiviral particles. The amino acid and nucleotide sequence of the humanized anti-human CD19 CAR (huCART19) is CAR 1, ID 104875 described in PCT publication, WO2014/153270, filed Mar. 15, 2014, and is designated SEQ ID NOs. 85 and 31 therein.
Lentiviral transfer vector DNA is mixed with the three packaging components VSVg env, gag/pol and rev in combination with lipofectamine reagent to transfect Lenti-X 293T cells. Medium is changed after 24 h and 30 h thereafter, the virus-containing media is collected, filtered and stored at −80° C. CARTs are generated by transduction of fresh or frozen naïve T cells obtained by negative magnetic selection of healthy donor blood or leukopak. T cells are activated by incubation with anti-CD3/anti-CD28 beads for 24 h, after which viral supernatant or concentrated virus (MOI=2 or 10, respectively) is added to the cultures. The modified T cells are allowed to expand for about 10 days. The percentage of cells transduced (expressing the CARs on the cell surface) and the level of CAR expression (relative fluorescence intensity, Geo Mean) are determined by flow cytometric analysis between days 7 and 9. The combination of slowing growth rate and T cell size approaching ˜350 fL determines the state for T cells to be cryopreserved for later analysis.
To evaluate the functionality of CARTs, the T cells are thawed and counted, and viability is assessed by Cellometer. The number of CAR-positive cells in each culture is normalized using non-transduced T cells (UTD). […]
For measuring the proliferation of CARTs, T cells are cultured with target cells at a ratio of 1:1. […] The number of T cells is assessed by flow cytometry using counting beads as reference.

A further data set deals with NALM6-luc tumors. In words: NALM6-luc tumor growth with daily RAD001 dosing. Conditions: daily oral dosing of RAD001 alone, 0.3, 1, 3 and 10 mg/kg; FIG. 7. The data set is classed as in vivo, NSG mice. On the procedure:
NALM6-luc cells: The NALM6 human acute lymphoblastic leukemia (ALL) cell line was developed from the peripheral blood of a patient with relapsed ALL. The cells were then tagged with firefly luciferase. These suspension cells grow in RPMI supplemented with 10% heat inactivated fetal bovine serum.
Mice: 6 week old NSG (NOD.Cg-Prkdc^scidIl2rg^tm1Wjl/SzJ) mice were received from the Jackson Laboratory (stock number 005557).
(§2) Tumor implantation: NALM6-luc cells were grown and expanded in vitro in RPMI supplemented with 10% heat inactivated fetal bovine serum. The cells were then transferred to a 15 ml conical tube and washed twice with cold sterile PBS. NALM6-luc cells were then counted and resuspended at a concentration of 10×10^6 cells per milliliter of PBS. The cells were placed on ice and immediately (within one hour) implanted in the mice. NALM6-luc cells were injected intravenously via the tail vein in a 100 μl volume, for a total of 1×10^6 cells per mouse.
as §1
PK analysis: Mice were dosed daily with RAD001 starting 7 days post tumor implantation. Dosing groups were as follows: 0.3 mg/kg, 1 mg/kg, 3 mg/kg, and 10 mg/kg. […]

The subject of another data set is huCAR19 CAR T cells. Nature of the data set: In vivo proliferation of humanized CD19 CAR T cells with and without RAD001 dosing. Also noted: species or system NSG mice. As to the method:
This example evaluates the ability of huCAR19 cells to proliferate in vivo with different concentrations of RAD001.
as §2
CAR T cell dosing: Mice were administered 5×10^6 CAR T cells 7 days after tumor implantation. Cells were partially thawed in a 37 degree Celsius water bath and then completely thawed by the addition of 1 ml of cold sterile PBS to the tube containing the cells. The thawed cells were transferred to a 15 ml falcon tube and adjusted to a final volume of 10 mls with PBS. The cells were washed twice at 1000 rpm for 10 minutes each time and then counted on a hemocytometer. T cells were then resuspended at a concentration of 50×10^6 CAR T cells per ml of cold PBS and kept on ice until the mice were dosed. The mice were injected intravenously via the tail vein with 100 μl of the CAR T cells for a dose of 5×10^6 CAR T cells per mouse. Eight mice per group were treated either with 100 μl of PBS alone (PBS), or humanized CD19 CAR T cells.
as §1
Based on these doses, huCAR19 CAR T cells were dosed with and without RAD001 to determine the proliferative ability of these cells. The highest dose used was 3 mg/kg based on the levels of RAD001 in the blood 24 hours after dosing. As the concentration of RAD001 was above 10 nM 24 hours after the final dose of RAD001, several lower doses of RAD001 were used in the in vivo study with CAR T cells. The CAR T cells were dosed IV one day prior to the start of the daily oral RAD001 dosing. Mice were monitored via FACS for T cell expansion.

For the compound `CO[C@H]1C[C@@H]2CC[C@@H](C)[C@@](O)(O2)C(=O)C(=O)N2CCCC[C@H]2C(=O)O[C@H]([C@H](C)C[C@@H]2CC[C@@H](OCCO)[C@H](OC)C2)CC(=O)[C@H](C)/C=C(\C)[C@@H](O)[C@@H](OC)C(=O)[C@H](C)C[C@H](C)/C=C/C=C/C=C/1C` [RAD001, (1R,9S,12S,15R,16E,18R,19R,21R,23S,24E,26E,28E,30S,32S,35R)-1,18-dihydroxy-12-{(1R)-2-[(1S,3R,4R)-4-(2-hydroxyethoxy)-3-methoxycyclohexyl]-1-methylethyl}-19,30-dimethoxy-15,17,21,23,29,35-hexamethyl-11,36-dioxa-4-aza-tricyclo[30.3.1.04,9]hexatriaconta-16,24,26,28-tetraene-2,3,10,14,20-pentaone], the concentration at 24 h in data set [1] (NSG, mouse, blood, lowest dose tested (0.3 mg/kg), oral, day 0 and day 14 PK, read-out: RAD001 concentrations in the blood 24 hours after dosing) is greater than 10 nM. Also, in data set [1] (blood, NSG mice with NALM6 tumors), the “concentration of RAD001 24 hours after the final dose” value was “above 10 nM”. In data set [1] (daily oral RAD001, FIGS. 8A and 8B), the “stability in the blood of tumor bearing mice” value was “fairly stable”. For the same compound, the “proliferation of huCART19 compared with no RAD001” value in data set [2] (0.0032 and 0.016 nM RAD001, 4 day co-culture with Nalm-6) is “higher than observed without the addition of RAD001”. Besides, in data set [2] (4 day co-culture with Nalm-6 at 1:1, to a lesser extent at higher concentrations, FIG. 6), the “RAD001 concentration at which huCART19 cells expanded” value is recorded as “less than 0.016 nM”. Also, in data set [2] (low doses of RAD001, co-culture with Nalm-6, 4 days, FIG. 6 legend), the “proliferation of CAR-expressing, transduced T cells” value is listed as “enhanced”. Further, the “growth of NALM6-luc tumors” value with NALM6-luc tumors is “did not have an impact”. In the data set on huCAR19 CAR T cells (RAD001 0.003 mg/kg daily, FIG. 9 legend), the “CAR T cell proliferation relative to normal level of huCAR19 proliferation” value is “enhancement in CAR T cell proliferation”. For the same compound, the “proliferation of the CAR T cells in vivo” value in the data set with huCAR19 CAR T cells (lowest doses of RAD001, daily oral, huCAR19 CAR T cells IV one day before, FIGS. 9A and 9B) was “enhanced proliferation”. Moreover, the “enhanced proliferation, CD4+ CAR T cells compared with CD8+ CAR T cells” value in the data set on huCAR19 CAR T cells (lowest doses of RAD001, FIG. 9A) was “more evident and prolonged”. Besides, in the data set on huCAR19 CAR T cells (lowest doses of RAD001, FIG. 9B), the “proliferation of CD8+ CAR T cells” value is listed as “enhanced proliferation can be seen at early time points”.

The record behind these values is US12186278B2, “Mesothelin chimeric antigen receptor (CAR) and antibody against PD-L1 inhibitor for combined use in anticancer therapy” (Novartis AG, priority 2015, dated 2025).
